Patent US6969590B2, “Use of a polypeptide for treatment of pruritus in animals” (Zengen, Inc., priority 2001, dated 2005)

What was measured:
[1] = test system: edema caused by intradermal injection of human recombinant IL-1β in the mouse ear; test: Ear edema by intradermal recombinant human IL-1β; format: in vivo, BALB/c mice; conditions: for effect of antagonist on anti-inflammatory effect of centrally administered α-MSH (1-13): antagonist administered intraperitoneally
Method: Female BALB/c mice (Simonsen Laboratories, Gilroy, Calif.), 7-8 weeks old, were housed at 23-25° C. in groups not exceeding five animals per cage [28 cm (L)×18 cm (W)×13 cm (H)]. Before the experiments they were acclimatized for not less than 1 week before experimentation to standard lighting and temperature conditions with food and water freely available.
Mice were anesthetized with 10% pentobarbital sodium solution (1 mg/mouse, 50 mg/ml, Nembutal sodium solution; Abbott Laboratories, North Chicago, Ill.). Baseline ear thickness measurements were taken with a spring-loaded micrometer (Swiss Precision Instruments, Los Angeles, Calif.). Ear thickness was expressed in cubic centimeters and was measured at least twice at each time point. The average thickness of unstimulated ears was […]. Inflammation was induced by intradermal injection of 20 μl of recombinant human IL-1β (1500 U; Genzyme, Cambridge, Mass.) in one ear of each mouse using a 28 gauge needle (Hiltz et al., 1992). Measures of ear thickness were repeated 4 and 6 hr later, while the mice were under sodium pentobarbital anesthesia. Edema was assessed by subtracting baseline measures from 4 and 6 hr readings for each animal. α-MSH (11-13) (1663.9 gm/mol; Peninsula Laboratories, Belmont, Calif.) or α-MSH (11-13) (383.48 gm/mol; Peninsula Laboratories) dissolved in saline was injected intracerebroventricularly (20 μl) using procedures described previously (Lipton et al., 1991; Lipton and Catania, 1993).
Several agents were administered at the time of ear challenge to pharmacologically block certain receptors: atropine (Sigma Chemical Co.; 150 μg i.p.), a muscarinic receptor blocker that acts on autonomic end-organ receptors, was chosen because of links between inflammation and modulation of pain and the finding that muscarinic antagonists increase pain threshold (Hartvig et al., 1989); phentolamine (Sigma; 150 μg i.p.) an agent that competes for occupancy of α-adrenergic receptors; propranolol (Sigma; 150 μg, i.p.; 30 μg, i.c.v.), a nonspecific competitive antagonist for β-adrenergic receptors.
Because of the size of the experiments and the requirement for several shipments of animals over time, several experiments were performed, each with complete treatment and control groups drawn from the same shipment of mice. Omnibus analysis of variance techniques (Dynastat, Washington, D.C.) were used to test overall differences among group means. Tukey's protected t test was used to compare individual means. Probability values of <0.05 were considered significant.

C. albicans = C. albicans colony forming units (candidacidal activity); format: cell-based; conditions: for relative potency in reducing C. albicans viability: 10^−4M melanocortin peptides; for reduction of C. albicans CFU at higher concentrations: up to 10^−4M
Method: C. albicans (1×10^6/ml in HBSS) was incubated in the presence or absence or α-MSH (1-13) or α-MSH (11-13) at concentrations in the range of 10^−15 M to 10^−6 M for 2 hours at 37° C. Cells were then washed in cold distilled water and diluted with HBSS to a concentration of 100 organisms/ml. One-ml aliquots were dispensed on blood agar plates and incubated for 48 hours at 37° C. Organism viability was estimated from the number of colonies formed. In subsequent experiments using familiar procedures we compared activity of α-MSH (4-10), α-MSH (6-13), α-MSH (11-13), ACTH (1-39), (18-39) and fluconazole, the latter an established antifungal agent. Melanocortin peptides and fluconazole were tested in concentrations of 10^−6 M to 10^−4 M. There were at least six replicates for each concentration of peptide.

[2] = test system: inflammation induced in the ear by picryl chloride; test: Picryl chloride-induced ear swelling; format: in vivo, BALB/C mice; conditions: for overall effect on ear inflammation (ANOVA): 10-80 μg IP, 3 and 6 h
Method: Female BALB/C mice (Simmons Laboratories), 7 weeks old, were housed at 23-25° C. in groups of no more than 5 per cage [28 cm (L)×18 cm (W)×13 cm (H)]. They were allowed to acclimatize to standard lighting and temperature conditions for at least 1 week, with food and water available ad lib, before the experiment began. Five to ten animals were randomly assigned to each treatment group each test day, and all experiments were repeated at least twice to confirm reproducibility. To reduce error due to slight differences in responses to the irritant of animals from different shipments, tests of each agent were performed as separate experiments in which experimental and control animals were drawn from the same shipment.
In the experiments each animal was anesthetized with 1 mg of pentobarbital sodium solution (50 mg/kg, Nembutal, Abbott Laboratories, Abbott park, Ill.). Baseline ear thickness was measured for both ears with a spring-loaded micrometer (Swiss Precision Instruments, Los Angeles, Calif.). Ear thickness was expressed in units of 10^−3 cm; the average thickness of unstimulated ears was approximately 25-30×10^−3 cm. After baseline measurements were taken, one of six solutions was injected IP. Control animals received 0.2 ml of sterile saline, and experimental animals received Ac-α-MSH (11-13)-NH2, i.e., Ac-Lys-Pro-Val-NH2), Ac[D-Lys^11] α-MSH (11-13)-NH2, Ac[D-Pro^12] α-MSH (11-13)-NH2, Ac[D-Val^13] α-MSH (11-13)-NH2 or Ac-[D-Lys^11, D-Val^13] α-MSH (11-13)-NH2 in the same volume of saline. […] The doses of the tripeptides were 10 μg ([…]), 20 μg ([…]), 40 μg (1.04×10^−7 M), and 80 μg (2.08×10^−7 M). Immediately after saline or α-MSH injection, a micropipette was used to coat both sides of each ear with 10 μl (40 μl per mouse) of a 0.5% picryl chloride (Polysciences, Warrington, Pa.) solution in acetone.
Ear thickness was remeasured 3 and 6 h after picryl chloride application. Swelling was determined by subtracting baseline thickness from the measurements for each ear at 3 and 6 h. The differences for both ears were then averaged for the final analysis.
Repeated-measure ANOVA techniques were used to determine if there was an overall difference among group data for each peptide tested in separate experiments. In those cases in which the ANOVA yielded significant results, Dunnett's test was then used to compare the effects of peptide doses with control (saline) data for each of the two time periods, 3 and 6 h.

Compound: CC(C)NCC(O)COc1ccc(CC(N)=O)cc1 (centres unmarked) [atenolol]
- effect of antagonist on anti-inflammatory effect of centrally administered α-MSH (1-13) [1]: little inhibition

Compound: CN1[C@@H]2CC[C@H]1C[C@@H](OC(=O)C(CO)c1ccccc1)C2 (some centres unmarked) [atropine]
- effect of antagonist on anti-inflammatory effect of centrally administered α-MSH (1-13) [1]: did not alter

Compound: COc1ccc(OC)c(C(O)C(C)NC(C)(C)C)c1 (centres unmarked) [butoxamine]
- effect of antagonist on anti-inflammatory effect of centrally administered α-MSH (1-13) [1]: significantly reduced

Compound: Cc1ccc(N(CC2=NCCN2)c2cccc(O)c2)cc1 [phentolamine]
- effect of antagonist on anti-inflammatory effect of centrally administered α-MSH (1-13) [1]: did not alter

Compound: CC(C)NCC(O)COc1cccc2ccccc12 (centres unmarked) [propranolol]
- effect of antagonist on anti-inflammatory effect of centrally administered α-MSH (1-13) [1]: inhibited
- effect of antagonist on anti-inflammatory influence of α-MSH (1-13) ([1]; antagonist injected centrally): little effect

Compound: ACTH (1-39): adrenocortitrophic hormone peptide (1-39) (SYSMEHFRWGKPVGKKRRPVKVYPNGAEDESAEAFPLEF; Corticotropin; UniProt P01189 138-176, looked up) [reference compound]
- relative potency in reducing C. albicans viability (C. albicans): did not reduce C. albicans viability
- reduction of C. albicans CFU at higher concentrations (C. albicans): ineffective

Compound: ACTH fragment (18-39): ACTH fragment (18-39) (RPVKVYPNGAEDESAEAFPLEF; Corticotropin; UniProt P01189 155-176, looked up, fragment) [reference compound]
- relative potency in reducing C. albicans viability (C. albicans): did not reduce C. albicans viability
- reduction of C. albicans CFU at higher concentrations (C. albicans): ineffective

Compound: Ac-[D-Lys^11, D-Val^13] α-MSH (11-13)-NH2 [Ac-[D-Lys^11, D-Val^13]α-MSH(11-13)-NH2]
- % Inhibition of swelling ([2]; 10 μg IP, 3 h): 22%
- % Inhibition of swelling ([2]; 10 μg IP, 6 h): 22%
- % Inhibition of swelling ([2]; 20 μg IP, 3 h): 55%
- % Inhibition of swelling ([2]; 20 μg IP, 6 h): 46%
- % Inhibition of swelling ([2]; 40 μg IP, 3 h): 42%
- % Inhibition of swelling ([2]; 40 μg IP, 6 h): 41%
- % Inhibition of swelling ([2]; 80 μg IP, 3 h): 40%
- % Inhibition of swelling ([2]; 80 μg IP, 6 h): 44%
- overall effect on ear inflammation (ANOVA) [2]: significant overall reduction in inflammation

Compound: Ac-[D-Pro^12]α-MSH (11-13)-NH2
- % Inhibition of swelling ([2]; 10 μg IP, 3 h): 4%
- % Inhibition of swelling ([2]; 10 μg IP, 6 h): 8%
- % Inhibition of swelling ([2]; 20 μg IP, 3 h): 11%
- % Inhibition of swelling ([2]; 20 μg IP, 6 h): 5%
- % Inhibition of swelling ([2]; 40 μg IP, 3 h): 10%
- % Inhibition of swelling ([2]; 40 μg IP, 6 h): 8%
- % Inhibition of swelling ([2]; 80 μg IP, 3 h): 8%
- % Inhibition of swelling ([2]; 80 μg IP, 6 h): 6%
- overall effect on ear inflammation (ANOVA) [2]: no significant effect on inflammation

Compound: Ac[D-Val^13] α-MSH (11-13)-NH2
- % Inhibition of swelling ([2]; 10 μg IP, 3 h): 24%
- % Inhibition of swelling ([2]; 10 μg IP, 6 h): 23%
- % Inhibition of swelling ([2]; 20 μg IP, 3 h): 48%
- % Inhibition of swelling ([2]; 20 μg IP, 6 h): 54%
- % Inhibition of swelling ([2]; 40 μg IP, 3 h): 39%
- % Inhibition of swelling ([2]; 40 μg IP, 6 h): 45%
- % Inhibition of swelling ([2]; 80 μg IP, 3 h): 41%
- % Inhibition of swelling ([2]; 80 μg IP, 6 h): 29%
- overall effect on ear inflammation (ANOVA) [2]: marked inhibitory influence

Compound: MEHFRWG [α-MSH (4-10)]
- inhibition of CFU (C. albicans; 10^−4M peptide as printed): approximately 50%
